Data as given in ChEMBL document CHEMBL1133843, “3-Aryl-4-aryloyl-1-(1H-imidazol-5-yl)methylpyrrole, a novel class of farnesyltransferase inhibitors” (Bioorg Med Chem Lett, 2001).

Target: Protein farnesyltransferase (Homo sapiens, UniProt P49354+P49356)
Assay: Inhibition of [3H]FPP incorporation into Ha-ras protein by Farnesyltransferase
Assay type: functional

IC50 [nM]	SMILES
2300	Cc1ccc(C(=O)c2cn(Cc3c[nH]cn3)cc2-c2ccc3ccccc3c2)cc1
16	O=C(c1ccc(Oc2ccccc2)cc1)c1cn(Cc2c[nH]cn2)cc1-c1cccc2ccccc12
115	O=C(c1ccccc1)c1cn(Cc2c[nH]cn2)cc1-c1cccc2ccccc12
88	O=C(c1ccccc1Br)c1cn(Cc2c[nH]cn2)cc1-c1cccc2ccccc12
470	Cc1ccc(C(=O)c2cn(Cc3c[nH]cn3)cc2-c2c3ccccc3cc3ccccc23)cc1
32	O=C(c1ccc(Br)cc1)c1cn(Cc2c[nH]cn2)cc1-c1cccc2ccccc12
1.4	CSCC[C@H](NC(=O)c1ccc(CNCc2c[nH]cn2)cc1-c1ccccc1C)C(=O)O
4.6	Cn1cncc1Cn1cc(C(=O)c2ccc(Oc3ccccc3)cc2)c(-c2cccc3ccccc23)c1
65	Cc1ccc(C(=O)c2cn(Cc3c[nH]cn3)cc2-c2cccc3ccccc23)cc1
